Results taken from ChEMBL document CHEMBL1130457, “Design and synthesis of a novel class of thrombin inhibitors incorporating heterocyclic dipeptide surrogates” (Bioorg Med Chem Lett, 1997).

Columns and labels:
[1] = target: Tissue-type plasminogen activator (Homo sapiens, UniProt P00750); test: Inhibitory concentration required to inhibit human Tissue type plasminogen activator was determined
Coagulation factor X = Coagulation factor X (Homo sapiens, UniProt P00742)
Plasminogen = Plasminogen (Homo sapiens, UniProt P00747)
Plasminogen, sequence (P00747 97-580 limits assumed): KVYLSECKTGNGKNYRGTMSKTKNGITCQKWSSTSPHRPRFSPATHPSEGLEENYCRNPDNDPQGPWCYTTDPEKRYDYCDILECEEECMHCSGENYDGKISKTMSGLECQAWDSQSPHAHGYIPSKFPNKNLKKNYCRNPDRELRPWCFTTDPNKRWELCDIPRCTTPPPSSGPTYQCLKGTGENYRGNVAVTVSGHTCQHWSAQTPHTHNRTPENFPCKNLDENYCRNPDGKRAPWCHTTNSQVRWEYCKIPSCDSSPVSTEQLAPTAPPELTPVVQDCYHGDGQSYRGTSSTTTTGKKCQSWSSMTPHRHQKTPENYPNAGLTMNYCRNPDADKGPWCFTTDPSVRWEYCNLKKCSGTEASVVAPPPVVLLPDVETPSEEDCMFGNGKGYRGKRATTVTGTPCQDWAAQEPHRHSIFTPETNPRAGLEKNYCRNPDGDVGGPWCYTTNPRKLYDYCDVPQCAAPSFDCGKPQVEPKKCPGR
Plasminogen, sequence (P00747 581-810 limits assumed): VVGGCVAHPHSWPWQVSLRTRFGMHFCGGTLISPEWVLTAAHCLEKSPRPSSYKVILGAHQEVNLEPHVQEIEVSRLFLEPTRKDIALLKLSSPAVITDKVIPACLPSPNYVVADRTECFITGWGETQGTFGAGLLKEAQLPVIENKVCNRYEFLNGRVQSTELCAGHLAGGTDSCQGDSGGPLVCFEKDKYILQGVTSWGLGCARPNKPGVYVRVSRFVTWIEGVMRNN

Prothrombin = Prothrombin (Homo sapiens, UniProt P00734)
Description: Inhibitory concentration required to inhibit human thrombin enzyme was determined

Serine protease 1 = Serine protease 1 (Homo sapiens, UniProt P07477)
Serine protease 1, sequence (P07477 whole entry): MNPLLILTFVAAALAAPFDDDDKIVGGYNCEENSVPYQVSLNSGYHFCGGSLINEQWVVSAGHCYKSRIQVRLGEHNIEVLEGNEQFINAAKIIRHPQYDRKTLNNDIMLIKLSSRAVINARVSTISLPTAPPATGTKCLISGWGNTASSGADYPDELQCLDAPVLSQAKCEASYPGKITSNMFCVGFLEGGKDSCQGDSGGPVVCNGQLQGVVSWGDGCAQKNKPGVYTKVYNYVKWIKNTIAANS

Tissue-type plasminogen activator, sequence (P00750 whole entry): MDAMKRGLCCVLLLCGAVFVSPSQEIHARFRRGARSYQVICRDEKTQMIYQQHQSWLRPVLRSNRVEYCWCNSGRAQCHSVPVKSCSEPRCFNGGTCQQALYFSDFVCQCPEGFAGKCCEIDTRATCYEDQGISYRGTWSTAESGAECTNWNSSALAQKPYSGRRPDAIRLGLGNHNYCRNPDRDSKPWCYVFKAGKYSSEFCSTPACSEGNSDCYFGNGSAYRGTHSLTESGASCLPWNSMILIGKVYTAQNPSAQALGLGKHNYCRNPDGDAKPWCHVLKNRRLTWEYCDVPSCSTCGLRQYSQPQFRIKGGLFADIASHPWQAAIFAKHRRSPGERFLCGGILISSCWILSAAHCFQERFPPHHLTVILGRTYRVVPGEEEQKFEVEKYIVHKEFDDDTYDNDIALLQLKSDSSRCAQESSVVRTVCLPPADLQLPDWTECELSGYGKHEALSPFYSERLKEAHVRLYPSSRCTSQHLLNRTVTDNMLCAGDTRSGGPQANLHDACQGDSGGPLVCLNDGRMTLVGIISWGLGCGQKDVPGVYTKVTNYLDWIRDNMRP
Coagulation factor X, sequence (P00742 41-179 limits assumed): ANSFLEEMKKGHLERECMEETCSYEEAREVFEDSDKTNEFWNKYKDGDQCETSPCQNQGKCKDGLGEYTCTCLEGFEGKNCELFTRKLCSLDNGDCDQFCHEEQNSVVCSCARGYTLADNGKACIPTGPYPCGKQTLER
Coagulation factor X, sequence (P00742 235-488 limits assumed): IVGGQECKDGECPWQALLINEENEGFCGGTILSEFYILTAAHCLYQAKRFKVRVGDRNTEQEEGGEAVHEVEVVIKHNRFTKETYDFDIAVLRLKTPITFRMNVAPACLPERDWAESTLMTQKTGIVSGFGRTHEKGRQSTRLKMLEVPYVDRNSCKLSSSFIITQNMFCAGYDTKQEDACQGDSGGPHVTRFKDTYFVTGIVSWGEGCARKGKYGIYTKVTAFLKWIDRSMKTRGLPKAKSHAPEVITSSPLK

Row | Structure (SMILES) | IC50 [1] [µM] | IC50 (Coagulation factor X) [µM] | IC50 (Plasminogen) [µM] | IC50 (Prothrombin) [µM] | IC50 (Serine protease 1) [µM]
1 | Cn1cc(NS(=O)(=O)Cc2ccccc2)c(=O)n(CC(=O)N[C@H]2CCCN(C(=N)N)C2O)c1=O (stereo not given in full) | > 2.5 | 2.5 | > 2.5 | 0.141 | 0.396
2 | Cc1ncc(NS(=O)(=O)Cc2ccccc2)c(=O)n1CC(=O)N[C@H]1CCCN(C(=N)N)C1O (stereo not given in full) | > 2.5 | 0.905 | > 2.5 | 0.00232 | 0.16
3 | N=C(N)N1CCC[C@H](NC(=O)Cn2cccc(NS(=O)(=O)Cc3ccccc3)c2=O)C1O (stereo not given in full) | > 2.5 | 0.0209 | > 2.5 | 0.000505 | 0.0262
4 | Cc1ccc(NS(=O)(=O)Cc2ccccc2)c(=O)n1CC(=O)N[C@H]1CCCN(C(=N)N)C1O (stereo not given in full) | > 2.5 | 0.447 | > 2.5 | 0.000467 | 0.0109
5 | N=C(N)N1CCC[C@H](NC(=O)CN2CCC[C@H](NS(=O)(=O)Cc3ccccc3)C2=O)C1O (stereo not given in full) | > 2.5 | 2.5 | > 2.5 | 0.0062 | 0.791
